Test results from patent US20240279214A1, “ALPHA4 BETA7 INEGRIN ANTAGONISTS AND USES THEREOF” (XinThera, Inc., priority 2022, published 2024).

Molecular target: T1, a4b7 integrin interaction with MadCAM-1 (Homo sapiens, UniProt P13612+P26010)
T1 construct: capture of a4b7 integrin expressing cells, RPMI8866; endogenous in cells; host or cells: RPMI8866
T1 sequence (P13612 34-1032): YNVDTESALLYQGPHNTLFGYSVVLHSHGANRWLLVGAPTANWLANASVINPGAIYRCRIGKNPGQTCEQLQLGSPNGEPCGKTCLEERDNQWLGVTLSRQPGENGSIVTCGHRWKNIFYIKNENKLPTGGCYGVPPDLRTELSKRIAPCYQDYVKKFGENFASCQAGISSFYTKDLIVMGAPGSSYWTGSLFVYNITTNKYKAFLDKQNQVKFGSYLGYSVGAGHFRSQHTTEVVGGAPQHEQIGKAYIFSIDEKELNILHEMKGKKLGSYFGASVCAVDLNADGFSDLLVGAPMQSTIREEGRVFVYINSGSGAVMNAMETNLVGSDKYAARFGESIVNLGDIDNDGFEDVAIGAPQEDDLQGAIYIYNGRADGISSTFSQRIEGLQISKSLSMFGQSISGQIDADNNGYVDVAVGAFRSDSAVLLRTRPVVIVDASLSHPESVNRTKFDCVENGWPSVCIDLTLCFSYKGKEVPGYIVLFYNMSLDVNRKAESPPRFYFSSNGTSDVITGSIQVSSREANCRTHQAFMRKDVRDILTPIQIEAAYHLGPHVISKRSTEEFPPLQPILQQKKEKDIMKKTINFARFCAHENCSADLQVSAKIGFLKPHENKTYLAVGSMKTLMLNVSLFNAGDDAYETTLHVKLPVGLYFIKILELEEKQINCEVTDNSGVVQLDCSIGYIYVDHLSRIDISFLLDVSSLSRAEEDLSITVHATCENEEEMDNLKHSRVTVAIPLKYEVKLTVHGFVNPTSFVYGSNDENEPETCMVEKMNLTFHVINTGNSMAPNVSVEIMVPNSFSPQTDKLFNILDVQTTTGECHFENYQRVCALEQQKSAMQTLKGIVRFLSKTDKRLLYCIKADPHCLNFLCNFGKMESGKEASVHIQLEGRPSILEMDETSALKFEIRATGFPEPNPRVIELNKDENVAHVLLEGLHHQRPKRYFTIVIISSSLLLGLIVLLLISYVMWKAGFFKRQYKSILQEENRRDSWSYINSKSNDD
T1 sequence (P26010 20-798): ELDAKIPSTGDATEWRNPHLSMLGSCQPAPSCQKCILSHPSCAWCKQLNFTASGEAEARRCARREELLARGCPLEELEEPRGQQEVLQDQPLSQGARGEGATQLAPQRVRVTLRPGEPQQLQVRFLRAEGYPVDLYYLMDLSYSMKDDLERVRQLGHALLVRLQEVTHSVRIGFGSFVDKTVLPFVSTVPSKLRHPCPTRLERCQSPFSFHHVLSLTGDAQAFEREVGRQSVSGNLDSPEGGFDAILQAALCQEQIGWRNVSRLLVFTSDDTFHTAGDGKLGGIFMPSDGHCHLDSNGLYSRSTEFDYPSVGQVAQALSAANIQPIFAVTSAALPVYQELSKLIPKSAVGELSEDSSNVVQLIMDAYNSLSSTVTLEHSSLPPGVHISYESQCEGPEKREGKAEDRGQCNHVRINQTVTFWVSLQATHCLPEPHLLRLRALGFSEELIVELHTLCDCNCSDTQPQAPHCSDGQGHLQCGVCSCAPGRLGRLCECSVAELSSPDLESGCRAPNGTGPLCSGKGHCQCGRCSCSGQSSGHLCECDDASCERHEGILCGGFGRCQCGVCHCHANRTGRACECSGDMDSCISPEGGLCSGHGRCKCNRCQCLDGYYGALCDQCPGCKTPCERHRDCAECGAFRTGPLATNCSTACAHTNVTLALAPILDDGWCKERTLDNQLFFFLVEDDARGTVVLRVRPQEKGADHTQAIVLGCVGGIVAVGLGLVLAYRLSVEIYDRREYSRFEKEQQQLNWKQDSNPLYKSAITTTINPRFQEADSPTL
Assay: a4b7 Cell Capture Assay (RPMI8866 cells on MAdCAM-1 Fc coated plates)
Assay type: cell-based
Settings: 50% human serum, 1 mM MgCl2, 1 hour incubation, CellTiter-Glo luminescence, read-out: a4B7 cell capture assay RMPI8866-MadCAM EC50
Description: The potency of inhibitors in preventing a4b7 integrin interaction with MadCAM-1 was measured by monitoring the capture of a4b7 integrin expressing cells, RPMI8866, on recombinant human MAdCAM-1 Fc chimera protein-coated plates. The protein was a fusion between human MAdCAM-1 (Met1-Gln333, Accession #AAY82472) and human IgG1 (Pro100-Lys330)] (R&D Systems, Catalog #6056-MC). 96-well plates (Thermofisher, Catalog #136102) were coated with the recombinant protein by dispensing 100 μL (1.0 μg/mL) per well. After a quick spin to settle down the coating solution using a plate centrifuge, plates were incubated overnight at 4° C. in a moisture chamber. On Day 2, the plates were washed with PBS using a Bluecatbio Blue®Washer (GentleSpin wash, 3 cycles, pressure=1, volume 150 uL). Blocking solution (1.0% BSA in PBS, Sigma, Catalog #A7979) was then added at 200 uL/well, and the plates were quickly spun to settle down blocking buffer and incubated in cell culture incubator at 37° C. and 5% CO2 for 1 hour. The plates were then washed with 0.1% BSA in PBS using a Bluecatbio Blue®Washer (GentleSpin wash, 3 cycles, pressure=1, volume 150 uL). RPMI8866 cells suspended in assay medium (1 mM MgCl2 25 mM HEPES and 50% human serum, Sigma, Catalog #H4522) at a density of 1.0×10^6 cells/mL were added at 100 uL/well. Each compound evaluated was prepared as a DMSO stock solution. Test compounds were evaluated with a 9-point serial dilution curve (1000, 333.3, 111.1, 55.6, 27.8, 13.9, 6.9, 2.3, and 0.77 nM)) and were added to the plates using a Tecan D.30e Digita dispenser, the dispensed stock is 100 nL and the final DMSO concentration is 0.1%. Potent compounds were re-evaluated at a new 9-point serial dilution curve (100, 33.3, 11.1, 5.6, 2.8, 1.4, 0.69, 0.23, and 0.08 nM). Each titration curves were performed in triplicate on the same plate, and most of compounds were retested in different dates multiple times. The plates were shaken at 300 rpm on orbital plate shaker for 3 minutes to mix the cells and compounds, quickly spun to settle the cells and solution, and incubated in cell culture incubator at 37° C. and 5% CO2. After 1 hour incubation, the unbound cells were washed away with RPMI1640 medium supplemented with 1 mM MgCl2 and 1% BSA) (wash buffer) using a Bluecatbio Blue®Washer (MagbeadsSpin wash, 1 cycle, pressure 1, volume=150 uL). After wash buffer removal, A mixture of wash buffer/CellTiter-Glo® Reagent (Pormega, catalog #G7573) at 1:1 (V/V) was added at volume of 100 uL to each well. The plates were placed in a chamber at 25° C. and incubated for 30 minutes. Luminescence was recorded using a Envision plate reader 2105 according to CellTiter-Glo protocol.
The mean luminescence signals from negative control wells without MadCAM-1 coating and compound treatment (cells only) was defined as 100% binding inhibition, and the mean luminescence signals from positive control wells with MadCAM-1 coating but without compound treatment (MadCAM-1 and cells only) was defined as 0% binding inhibition. The luminescence signals from other compound treated wells were normalized in percentage scale accordingly. The normalized mean % inhibition data were plotted against logarithmic compound concentration in nanomolar and were fitted with 4-parameter logistic model to obtain IC50 for each compound.

EC50 [nM] | Structure (SMILES)
14 | Cc1cccc2c1-c1cc(c(F)c(C(F)(F)F)c1)[C@H](CC(=O)O)NC(=O)[C@@H](n1cc(CCN(C)C)c(C(F)(F)F)cc1=O)c1cccc(c1)O2 (relative stereo) [Example 16, [(14R*,17S)-14-{5-[2-(dimethylamino)ethyl]-2-oxo-4-(trifluoromethyl)pyridin-1-yl}-19-fluoro-3-methyl-15-oxo-20-(trifluoromethyl)-8-oxa-16-azatetracyclo[16.3.1.1^{9,13}.0^{2,7}]tricosa-1(22),2(7),3,5,9,11,13(23),18,20-nonaen-17-yl]acetic acid]
140 | O=C(O)C[C@@H]1NC(=O)[C@@H](n2cc(CCN3CC(F)C3)c(C(F)(F)F)cc2=O)c2cccc(c2)Oc2cccc(Cl)c2-c2cc1c(F)c(C(F)(F)F)c2 (relative stereo) [Example 17, [(14R*,17S)-3-chloro-19-fluoro-14-{5-[2-(3-fluoroazetidin-1-yl)ethyl]-2-oxo-4-(trifluoromethyl)pyridin-1-yl}-15-oxo-20-(trifluoromethyl)-8-oxa-16-azatetracyclo[16.3.1.1^{9,13}.0^{2,7}]tricosa-1(22),2(7),3,5,9,11,13(23),18,20-nonaen-17-yl]acetic acid]
0.84 | Cc1cc2cc(c1F)[C@H](CC(=O)O)NC(=O)[C@@H](n1cc(CCN3CC(F)C3)c(C(F)(F)F)cc1=O)c1cc(ccc1F)Oc1cccc(Cl)c1-2 (relative stereo) [Example 19, [(14R*,17S)-3-chloro-12,19-difluoro-14-{5-[2-(3-fluoroazetidin-1-yl)ethyl]-2-oxo-4-(trifluoromethyl)pyridin-1-yl}-20-methyl-15-oxo-8-oxa-16-azatetracyclo[16.3.1.1^{9,13}.0^{2,7}]tricosa-1(22),2(7),3,5,9,11,13(23),18,20-nonaen-17-yl]acetic acid]
0.08 | Cc1cc2cc(c1F)[C@H](CC(=O)O)NC(=O)[C@@H](n1cc(CCCN(C)C)c(C(F)(F)F)cc1=O)c1cc(ccc1F)Oc1cccc(C)c1-2 (relative stereo) [Example 20, [(14R*,17S)-14-{5-[3-(dimethylamino)propyl]-2-oxo-4-(trifluoromethyl)pyridin-1-yl}-12,19-difluoro-3,20-dimethyl-15-oxo-8-oxa-16-azatetracyclo[16.3.1.1^{9,13}.0^{2,7}]tricosa-1(22),2(7),3,5,9,11,13(23),18,20-nonaen-17-yl]acetic acid]
9.9 | Cc1cc2cc(c1F)[C@H](CC(=O)O)NC(=O)[C@@H](n1cc(CCN3CC(F)C3)c(C(F)(F)F)cc1=O)c1cc(cc(C(F)(F)F)c1)Oc1cccc(C)c1-2 (relative stereo) [Example 22, [(14R*,17S)-19-fluoro-14-{5-[2-(3-fluoroazetidin-1-yl)ethyl]-2-oxo-4-(trifluoromethyl)pyridin-1-yl}-3,20-dimethyl-15-oxo-11-(trifluoromethyl)-8-oxa-16-azatetracyclo[16.3.1.1^{9,13}.0^{2,7}]tricosa-1(22),2(7),3,5,9,11,13(23),18,20-nonaen-17-yl]acetic acid]
2.3 | Cc1cc2cc(c1F)[C@H](CC(=O)O)NC(=O)[C@@H](n1cc(CCN(C)C)c(C(F)(F)F)cc1=O)c1cccc(c1)Oc1cccc(C)c1-2 (relative stereo) [Example 23, [(14R*,17S)-14-{5-[2-(dimethylamino)ethyl]-2-oxo-4-(trifluoromethyl)pyridin-1-yl}-19-fluoro-3,20-dimethyl-15-oxo-8-oxa-16-azatetracyclo[16.3.1.1^{9,13}.0^{2,7}]tricosa-1(22),2(7),3,5,9,11,13(23),18,20-nonaen-17-yl]acetic acid]
1.9 | Cc1cccc2c1-c1cc(C3CC3)c(F)c(c1)[C@H](CC(=O)O)NC(=O)[C@@H](n1cc(CCN3CC(F)C3)c(C(F)(F)F)cc1=O)c1cc(ccc1F)O2 (relative stereo) [Example 24, [(14R*,17S)-20-cyclopropyl-12,19-difluoro-14-{5-[2-(3-fluoroazetidin-1-yl)ethyl]-2-oxo-4-(trifluoromethyl)pyridin-1-yl}-3-methyl-15-oxo-8-oxa-16-azatetracyclo[16.3.1.1^{9,13}.0^{2,7}]tricosa-1(22),2(7),3,5,9,11,13(23),18,20-nonaen-17-yl]acetic acid]
2 | Cc1cccc2c1-c1cc(Cl)c(F)c(c1)[C@H](CC(=O)O)NC(=O)[C@@H](n1cc(CCN3CC(F)C3)c(C(F)(F)F)cc1=O)c1cc(ccc1F)O2 (relative stereo) [Example 25, [(14R*,17S)-20-chloro-12,19-difluoro-14-{5-[2-(3-fluoroazetidin-1-yl)ethyl]-2-oxo-4-(trifluoromethyl)pyridin-1-yl}-3-methyl-15-oxo-8-oxa-16-azatetracyclo[16.3.1.1^{9,13}.0^{2,7}]tricosa-1(22),2(7),3,5,9,11,13(23),18,20-nonaen-17-yl]acetic acid]
